Results on 2 molecules are retold here after patent US7256252B1, “Methods for detecting cell apoptosis” (Cephalon, Inc., priority 1996, dated 2007).

One data set relates to HL60 cells. As to the kind of experiment: Etoposide-triggered apoptotic proteolysis in HL60 cells (immunoblot). It counts as cell-based, human. The settings on record: 17 micromolar etoposide, 2 or 4 hours. How it is done:
HL60 cells (obtained from the American Type Culture Collection, Rockville, Md.) were cultured using published techniques (Collins et al., Nature, 270:347-349 (1977), incorporated herein by reference). Cultures of cells were incubated with either 17 micromolar etoposide (from a 1000× stock solution made in dimethylsulfoxide) to trigger apoptosis or a vehicle. After either 2 or 4 hours, cells were lysed in ice cold 25 millimolar (mM) HEPES (pH 7.5), 5 mM MgCl2, 0.1% Triton X-100 and a cocktail of protease inhibitors (1 mM EGTA, 10 micrograms per ml of aprotinin, 10 micrograms per ml of leupeptin, 7 micrograms per ml of pepstatin A, 1 mM phenylmethylsulfonylfluoride (PMSF). The resulting cell lysates were subjected to SDS-polyacrylamide gel electrophoresis on 4-20% Tris-glycine gradient gels, and the separated proteins transferred to nitrocellulose membranes by Western blotting. The blots were immunostained with Ab127 ( 1/5,000) followed by incubation with alkaline phosphatase conjugated goat anti-rabbit IgG (Bio-Rad, Burlingame, Calif.) and visualized as described previously (Roberts-Lewis et al., J. Neurosci. 14:3934-3944 (1994), incorporated herein by reference).

For a further data set, the system named is Hippocampal neurons. It counts as cell-based. The settings on record: hippocampal neurons in primary culture, 3-nitropropionic acid applied. The text has this:
Similar results were obtained with other cells. Hippocampal neurons grown in primary culture were stimulated to die by application of the neurotoxic metabolic poison 3-nitropropionic acid.

Turning to `COc1cc([C@@H]2c3cc4c(cc3[C@@H](O[C@@H]3O[C@@H]5CO[C@@H](C)O[C@H]5[C@H](O)[C@H]3O)[C@H]3COC(=O)[C@H]23)OCO4)cc(OC)c1O` [etoposide], in the data set on HL60 cells, the “level of about 30 kDa immunoreactive polypeptide” value is on record as “increased with increasing time of cell exposure”. On to `O=C(O)CC[N+](=O)[O-]` [3-nitropropionic acid], for which, in the data set on Hippocampal neurons, the “apoptotic neurons by Hoechst 33258 nuclear stain” value was “presence of apoptotic neurons”.
